Data as given in patent US20150374646A1, “TREATMENT OF CANCER AND OTHER CONDITIONS USING A TRANSCRIPTION FACTOR MODULATOR” (C & C BIOPHARMA, LLC, priority 2013, published 2015).

Key:
HL60 = assay: Leukemia cell growth inhibition, CellTiter-Glo (Example 1); assay type: cell-based, human
Description: (§2) Various human leukemia cells were grown to the logarithmic growth phase and seeded into 24-well plates. […] Treated cells were further incubated for 72 hours and then were examined for cell proliferation. Cell proliferation was determined using the CellTiter-Glo Luminescence Cell Viability assay (Promega Corporation, Madison, Wis.) according to the manufacturer's protocol. The calculated inhibition rate was determined with the following formula: Inhibition rate (%)=(1−Luminescence of experimental group/Luminescence of control group)×100. IC50 is the calculated concentration of a compound needed to inhibit half of the maximum cell growth (equivalent to cell growth in control group) based on the corresponding dose-response curve under the described experimental conditions.

K-562 = assay: as above; assay type: cell-based; details: Homo sapiens, K562; K-562, CML; 72 hours
Description: as §2

K562R = assay: as above; assay type: cell-based; details: Homo sapiens, K-562R, CML (Gleevec resistant), 72 hours
Description: as §2

U266 = assay: as above; assay type: cell-based; details: Homo sapiens, U-266; U266, Multiple myeloma; 72 hours
Description: as §2

Jurkat = assay: as above; assay type: cell-based; details: Homo sapiens, ALL (T-cell), 72 hours
Description: as §2

Nalm-6 [1] = assay: as above; assay type: cell-based, human
Description: as §2

RS4;11 = assay: as above; assay type: cell-based; details: Homo sapiens; RS4;11, ALL (B-cell); 72 hours
Description: as §2

BaF3 BCR-ABL = assay: as above; assay type: cell-based; details: Mouse cell line with BCR-ABL, 72 hours
Description: as §2

CCRF-CEM = assay: as above; assay type: cell-based; details: Homo sapiens, ALL (T-cell), 72 hours
Description: as §2

REH = assay: as above; assay type: cell-based, human; details: REH cells, 4 μM
Description: as §2

DU-145 = assay: Cancer cell line growth inhibition, CellTiter-Glo (Example 3); assay type: cell-based; details: Homo sapiens, Prostate, 72 hours, read-out: IC50
Description: (§1) YT30 was tested for growth inhibition against 67 human cancer cell lines derived from diverse tissues including the National Cancer Institute human cancer cell lines (NCI-60). […] Cells in different wells were treated with various concentrations of YT30, YT86, YT88, or YT128. […] Cell viabilities were determined by the CellTiter-Glo Luminescence Cell Viability assay kit (Promega Corporation, Madison, Wis.) according to manufacturer's protocol.

M14 = assay: as above; assay type: cell-based; details: Homo sapiens, Melanoma, 72 hours
Description: as §1

MDA-MB231 = assay: as above; assay type: cell-based; details: Homo sapiens, MDA-MB-231; Breast, MDA-MB231; 72 hours; read-out: IC50
Description: as §1

PC-3 = assay: as above; assay type: cell-based; details: Homo sapiens, Prostate, 72 hours
Description: as §1

SF-539 = assay: as above; assay type: cell-based; details: Homo sapiens, CNS, 72 hours, read-out: IC50
Description: as §1

SK-MEL-2 = assay: as above; assay type: cell-based; details: Homo sapiens, Melanoma, 72 hours
Description: as §1

SW-620 = assay: as above; assay type: cell-based; details: Homo sapiens, Colon, 72 hours
Description: as §1

MV4-11 cells = assay: Subcutaneous MV4-11 leukemia tumor growth in NOD/SCID mice (Example 5); assay type: in vivo
Description: Female Nonobese Diabetic/Severe Combined Immunodeficiency (NOD/SCID) mice that were 4-6 weeks old were used in the experiment. The mice were fed under specific pathogen free (SPF) conditions. Food and water were available to the mice at will. A suspension of 1×10^7 cells per mouse B-myelomonocytic leukemia MV4-11 cells (0.2 mL) in logarithmic phase were inoculated subcutaneously into the right back of the NOD/SCID nude mice.
The general conditions of the mice and the growth of the transplanted tumor were monitored. […] The control group received an intraperitoneal (IP) injection of 0.2 mL of solvent (20% DMSO, 80% of 20% w/v (2-hydroxypropyl)-β-cyclodextrin made in PBS). […] The high dosage group received an intraperitoneal injection of 50 mg/kg/day of YT30 (0.2 mL in volume) suspended in solvent (20% DMSO, 80% of 20% w/v (2-hydroxypropyl)-β-cyclodextrin made in PBS), while the low dosage group received IP injection of 25 mg/kg/day YT30 (0.2 mL in volume). Frequency of the administration was once per day and the experiment lasted 27 days after treatment started.
The body weights of the mice were recorded prior to the start of treatment and twice every week thereafter. Each mouse of every group was monitored daily for any other symptoms of side effects including change in behavior, activity or posture, areas of redness and swelling, and food and water withdrawal. Caliper measurements of the longest perpendicular tumor diameters were performed every 2 days to estimate the tumor volume; the following formula: 4π/3×(width/2)^2×(length/2) was used to calculate the three-dimensional volume of an ellipse. The tumor inhibition rate was calculated according to tumor volume: Tumor inhibition rate by size (%)=(Tumor volume of the control group−Tumor volume of the treated group)/Tumor volume of the control group×100. The mice were euthanized on the next day after the final injection and the subcutaneous tumor nodules were taken out intact and weighed. The tumor inhibition rate was calculated again according to tumor weight: Tumor inhibition rate by weight (%)=(Tumor weight of the control group−Tumor weight of the treated group)/Tumor weight of the control group×100).

Nalm-6 [2] = assay: cells; details: Homo sapiens, NALM-6, 72 h, read-out: 72 hr growth inhibition (%)
Description: as §2
Growth inhibition experiments were performed as previously described.

SMILES: Nc1ccccc1NC(=O)CCCCCC(=O)Nc1cccc(Br)c1 [YT30]
- Growth inhibition (FIG. 1) (HL60; HL60 cells, 4 μM): significantly inhibit cell growth
- IC50 (HL60; Homo sapiens, HL-60, HL60, AML (subtype APL), 72 hours): 1.04 µM
- IC50 (K-562): 1.82 µM
- IC50 (K562R): 3.21 µM
- IC50 (U266): 8.29 µM
- IC50 (Jurkat): 0.91 µM
- IC50 (Nalm-6 [1]; Homo sapiens, NALM-6, ALL (B-cell), 72 hours): 2.36 µM
- Growth inhibition (FIG. 1) (Nalm-6 [1]; Nalm-6 cells, 4 μM): significantly inhibit cell growth
- IC50 (RS4;11): 1.05 µM
- IC50 (BaF3 BCR-ABL): 3.4 µM
- IC50 (CCRF-CEM): 1.53 µM
- Growth inhibition (FIG. 1) (REH): significantly inhibit cell growth
- IC50 (DU-145): 4.98 µM
- IC50 (M14): 6.13 µM
- IC50 (MDA-MB231): 14.2 µM
- IC50 (PC-3): 9.79 µM
- IC50 (SF-539): 10.8 µM
- IC50 (SK-MEL-2): 4.6 µM
- IC50 (SW-620): 11 µM
- Average body weight (g, x ± s) End point (MV4-11 cells; 25 mg/kg I.P. × 27 days): 21.33 ± 1.26 g
- Average body weight (g, x ± s) Initial (MV4-11 cells; 25 mg/kg I.P. × 27 days): 21.61 ± 1.18 g
- Body weight change (%) (MV4-11 cells; 25 mg/kg I.P. × 27 days): −1.0%
- Tumor growth Inhibition by weight (%) (MV4-11 cells; 25 mg/kg I.P. × 27 days): 38.8%
- Tumor size (mm^3) (MV4-11 cells; 25 mg/kg I.P. × 27 days): 1072.31 ± 296.29 mm^3
- Tumor weight (g, x ± s) (MV4-11 cells; 25 mg/kg I.P. × 27 days): 1.35 ± 0.47 g
- Tumor growth Inhibition by size (%) (MV4-11 cells; 25 mg/kg I.P. × 27 days (low dosage)): 51.0%
- Average body weight (g, x ± s) End point (MV4-11 cells; 50 mg/kg I.P. × 27 days): 18.86 ± 1.38 g
- Average body weight (g, x ± s) Initial (MV4-11 cells; 50 mg/kg I.P. × 27 days): 21.02 ± 0.97 g
- Body weight change (%) (MV4-11 cells; 50 mg/kg I.P. × 27 days): −6.8%
- Tumor growth Inhibition by weight (%) (MV4-11 cells; 50 mg/kg I.P. × 27 days): 58.8%
- Tumor size (mm^3) (MV4-11 cells; 50 mg/kg I.P. × 27 days): 774.63 ± 269.10 mm^3
- Tumor weight (g, x ± s) (MV4-11 cells; 50 mg/kg I.P. × 27 days): 0.91 ± 0.27 g
- Tumor growth Inhibition by size (%) (MV4-11 cells; 50 mg/kg I.P. × 27 days (high dosage)): 64.6%
- inhibition at 0.5 µM (Nalm-6 [2]): 2.5%
- inhibition at 1 µM (Nalm-6 [2]): 8.4%
